Assay [1] has as its system platelets. The assay can be described thus: Platelet activation by whole blood flow cytometry: fibrinogen binding. The assay is classed as cell-based, human. The conditions noted are these: PAR1 1 μM final, 501 healthy subjects. As to the method:
(§1) PAR1 and PAR4 agonists were supplied as freeze dried peptides and reconstituted with HEPES buffered saline [HBS, 0.14M NaCl, 5 mM KCl, 1 mM MgSO4, 10 mM HEPES (sodium salt), pH 7.4] to 1 mM concentrations prior to storing in single use aliquots at −80° C. Immediately prior to use PAR1 was thawed and diluted in HBS to 10 μM as a working concentration to give a final assay concentration of 1 μM. Similarly PAR4 was diluted to 100 μM working concentration to give a final assay concentration of 10 μM.
(§2) The antibodies used for flow cytometry were: rabbit FITC-anti-fibrinogen (Dako Ltd, Ely, UK), PE-anti-CD62P and a relevant PE-isotype control (Bristol Institute for Transfusion Science, Bristol, UK). HBS was used for all dilutions.
(§3) Blood was processed within 15 minutes of venesection, with 5 μL of citrated whole blood containing aspirin (100 μM) and hirudin (10 U/mL) being added to 45 μL of HBS containing apyrase (4 U/mL), either FITC-anti-fibrinogen or PE anti-CD62P, and either PAR1 (1 μM final concentration) or PAR4 (10 μM final concentration). […] Platelets were identified by light scatter and results were recorded as the percentage of platelets positive for the relevant activation marker. […]
On the technique in general: A flow cytometer gives signals particle by particle.

The test system of assay [2] is platelets. The assay can be described thus: Platelet activation by whole blood flow cytometry: P-selectin (CD62P) expression. The assay is classed as cell-based, human. As to conditions: PAR1 1 μM final, 501 healthy subjects. As to the method: as §1, §2, §3
The target in assay [3] is T1, protease-activated receptor type 4 (PAR4) (Homo sapiens, UniProt Q96RI0).
T1 sequence (Q96RI0 18-385): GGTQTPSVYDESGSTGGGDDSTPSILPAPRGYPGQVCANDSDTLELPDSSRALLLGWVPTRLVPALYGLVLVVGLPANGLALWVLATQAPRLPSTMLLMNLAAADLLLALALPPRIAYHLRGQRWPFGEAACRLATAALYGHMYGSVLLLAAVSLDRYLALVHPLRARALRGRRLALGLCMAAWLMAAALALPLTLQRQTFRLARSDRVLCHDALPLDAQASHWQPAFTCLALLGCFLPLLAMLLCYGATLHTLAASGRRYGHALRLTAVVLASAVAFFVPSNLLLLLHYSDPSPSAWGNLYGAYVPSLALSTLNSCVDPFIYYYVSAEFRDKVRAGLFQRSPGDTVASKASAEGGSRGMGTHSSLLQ
As to conditions: abstract of Lee et al., J. Med. Chem., 44(22):3746-3749 (2001); cited from earlier work.

Results on two molecules are retold here after patent US20160274108A1, “DIAGNOSTIC METHODS FOR PAR4 ANTAGONIST THERAPY” (BRISTOL-MYERS SQUIBB COMPANY, priority 2013, published 2016).

As to “PAR1: PAR1 agonist, freeze dried peptide supplied by Bristol-Myers Squibb; Example 2 control is Compound A, SFFLRR (SEQ ID NO: 39)”, the “fibrinogen binding, % positive platelets, median” value in the assay with platelets [1] stood at 19.7%. Further, the “P-selectin expression, % positive platelets, median” value in the assay on platelets [2] is recorded as 86.8%.

As to `CCOC(=O)c1ccc(-c2nn(Cc3ccccc3)c3ccccc23)cc1`, in assay [3], the “inhibition of PAR4-dependent platelet activation” value was “selective and potent inhibitor”.
